Blank lines part the entries; values can stand above or below the molecule they belong to. The source made the active and inactive calls.
Tests used:
Caspase-6 = Caspase-6 (Homo sapiens, UniProt P55212); test: human caspase-6 inhibitors, dose response, biochemical, VEID-R110 fluorescence, cherry-pick (AID 720632)
Vero [1] = test: cytotoxicity of synthesized analogs in Vero 76, SAR follow-up, cytotoxicity control for West Nile virus antiviral project, Vero 76 cells (AID 2414); type: functional; conditions: Chlorocebus sabaeus
Vero [2] = test: cytotoxicity of synthesized analogs in Vero cells, SAR follow-up, cytotoxicity control for West Nile virus antiviral project, cell-based, set II (AID 2402); type: functional; conditions: Chlorocebus sabaeus
Prothrombin = Prothrombin (Homo sapiens, UniProt P00734); test: Thrombin 1536 HTS Dose Response Confirmation. [Related pubchem assays: 1046 (Thrombin 1536 HTS; hits were confirmed in this assay)]; type: functional
[3] = molecular target: Melanin-concentrating hormone receptor 1 (Homo sapiens, UniProt Q99705); test: Fluorescence-based counterscreen for antagonists of the G-protein coupled receptor 7 (GPR7): cell-based high throughput dose response assay to identify antagonists of the melanin-concentrating hormone receptor 1 (MCHR1).; type: functional
Sequence of Melanin-concentrating hormone receptor 1 (Q99705 whole entry): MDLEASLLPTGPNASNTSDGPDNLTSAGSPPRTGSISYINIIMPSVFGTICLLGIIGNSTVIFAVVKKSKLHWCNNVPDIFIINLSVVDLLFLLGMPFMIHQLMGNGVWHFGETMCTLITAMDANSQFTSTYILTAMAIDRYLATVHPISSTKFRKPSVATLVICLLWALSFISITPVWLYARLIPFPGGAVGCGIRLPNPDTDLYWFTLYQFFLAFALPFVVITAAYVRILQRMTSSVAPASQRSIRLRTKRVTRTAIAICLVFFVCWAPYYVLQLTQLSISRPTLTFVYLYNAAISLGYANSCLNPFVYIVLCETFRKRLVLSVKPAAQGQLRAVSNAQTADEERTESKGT

[4] = molecular target: Neuropeptides B/W receptor type 1 (Homo sapiens, UniProt P48145); test: Fluorescence-based dose response cell-based high throughput screening assay to identify antagonists of the G-protein coupled receptor 7 (GPR7). [Related pubchem assays: 1952 (Screening assay (GPR7 antagonists).), 1880 (Summary AID.)]; type: functional
Sequence of Neuropeptides B/W receptor type 1 (P48145 whole entry): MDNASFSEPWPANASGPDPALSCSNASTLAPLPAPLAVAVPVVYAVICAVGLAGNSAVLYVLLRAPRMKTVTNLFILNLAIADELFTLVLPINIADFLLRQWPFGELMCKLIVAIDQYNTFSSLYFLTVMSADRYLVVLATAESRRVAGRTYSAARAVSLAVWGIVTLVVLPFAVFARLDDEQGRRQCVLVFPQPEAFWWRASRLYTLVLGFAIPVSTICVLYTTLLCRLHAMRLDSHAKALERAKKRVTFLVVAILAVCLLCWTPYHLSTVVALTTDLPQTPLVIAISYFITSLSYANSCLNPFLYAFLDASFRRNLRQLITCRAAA

Vero [5] = test: West Nile virus antiviral activity, cell-based, CPE readout (AID 1621); type: functional; conditions: Chlorocebus sabaeus
Protein Tat = molecular target: T1, Protein Tat (Human immunodeficiency virus type 1 group M subtype B (isolate HXB2)(HIV-1), UniProt P04608); type: functional;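 further: tat binding to TAR RNA read out by fluorescence polarization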
T1 sequence (P04608 whole entry): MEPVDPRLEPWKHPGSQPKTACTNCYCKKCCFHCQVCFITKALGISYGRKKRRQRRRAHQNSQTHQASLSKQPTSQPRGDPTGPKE

[6] = Artemis endonuclease inhibitor potency, dose response, biochemical, fluorescence intensity (AID 720701); type: functional;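 further: Artemis endonuclease enzyme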
[7] = Vero cell cytotoxicity, dose response, cytotoxicity control for Vif-APOBEC3G degradation inhibitor project, Vero cells (AID 1117358); type: functional; conditions: Human immunodeficiency virus 1, Vero
[8] = inhibitors of Vif binding to APOBEC3G peptide, primary screen, biochemical, TR-FRET, GST-Vif 1-94, biotin-A3G peptide, dose response retest (AID 1117319); type: functional;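 further: TR-FRET signal of purified GST-Vif binding a biotinylated A3G peptide; inhibitors lower the FRET signal by blocking Vif and A3G binding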
[9] = molecular target: Diphosphomevalonate decarboxylase (Streptococcus pneumoniae serotype 2 (strain D39 / NCTC 7466), UniProt Q9FD53); test: S. pneumoniae DPM-DC inhibition retest, confirmation, biochemical, cuvette format, coupled NADH fluorescence (AID 1028); type: functional
Sequence of Diphosphomevalonate decarboxylase (Q9FD53 whole entry): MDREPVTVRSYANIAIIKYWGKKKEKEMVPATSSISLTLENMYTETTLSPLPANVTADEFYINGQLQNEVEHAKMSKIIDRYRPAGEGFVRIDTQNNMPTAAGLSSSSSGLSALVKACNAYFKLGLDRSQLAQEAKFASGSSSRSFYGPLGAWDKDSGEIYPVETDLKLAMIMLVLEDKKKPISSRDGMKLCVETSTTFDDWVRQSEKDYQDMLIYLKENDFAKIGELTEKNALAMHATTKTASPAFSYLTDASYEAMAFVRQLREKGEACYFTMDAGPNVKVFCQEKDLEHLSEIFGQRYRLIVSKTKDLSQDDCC

[10] = Jurkat T cell cytotoxicity, dose response, cytotoxicity control for P. falciparum gametocyte viability project, luminescence (AID 1117277); type: functional, cell-based;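 further: potency reflects loss of cellular ATP meaning fewer viable cells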
[11] = P. falciparum late gametocyte killing, dose response, luminescence (AID 1117278); type: functional, cell-based;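 further: gametocytes exposed to compound for 24 hours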
[12] = molecular target: E3 ubiquitin-protein ligase Mdm2 (Homo sapiens, UniProt Q00987); test: enhancers of MDM2-luciferase reporter signal, concentration-effect titration, project on inhibitors of MDM2 ubiquitin ligase, cellular assay, luminescent readout, 384-well plate format (AID 1394); type: functional;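 further: MDM2 E3 inhibitors raise luminescence so EC50 is for signal enhancement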
Sequence of E3 ubiquitin-protein ligase Mdm2 (Q00987 whole entry): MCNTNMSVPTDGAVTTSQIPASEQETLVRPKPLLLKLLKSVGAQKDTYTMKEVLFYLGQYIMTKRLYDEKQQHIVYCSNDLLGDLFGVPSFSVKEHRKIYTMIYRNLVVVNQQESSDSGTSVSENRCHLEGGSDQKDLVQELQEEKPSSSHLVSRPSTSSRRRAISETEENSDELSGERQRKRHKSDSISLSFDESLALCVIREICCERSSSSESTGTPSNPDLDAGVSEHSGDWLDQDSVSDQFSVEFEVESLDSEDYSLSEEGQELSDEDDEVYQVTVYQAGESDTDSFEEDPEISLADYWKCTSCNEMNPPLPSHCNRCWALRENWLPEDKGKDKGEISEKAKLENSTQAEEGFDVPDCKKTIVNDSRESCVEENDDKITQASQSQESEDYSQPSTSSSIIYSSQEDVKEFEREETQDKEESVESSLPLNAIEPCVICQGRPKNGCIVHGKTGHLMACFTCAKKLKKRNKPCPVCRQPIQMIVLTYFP

[13] = molecular target: T2, Heat shock factor protein 1 (Mus musculus, UniProt P38532); test: inhibition of MG132-induced HSE-luciferase signal, confirmation, cell-based, NIH3T3, luminescence, dose retest (AID 2382); type: functional;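 further: NIH3T3 fibroblasts with HSF1-driven luciferase reporter stressed by proteasome inhibitor MG132; luminescence from HSF1-driven luciferase expression after 8 hours of MG132 stress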
T2 sequence (P38532 whole entry): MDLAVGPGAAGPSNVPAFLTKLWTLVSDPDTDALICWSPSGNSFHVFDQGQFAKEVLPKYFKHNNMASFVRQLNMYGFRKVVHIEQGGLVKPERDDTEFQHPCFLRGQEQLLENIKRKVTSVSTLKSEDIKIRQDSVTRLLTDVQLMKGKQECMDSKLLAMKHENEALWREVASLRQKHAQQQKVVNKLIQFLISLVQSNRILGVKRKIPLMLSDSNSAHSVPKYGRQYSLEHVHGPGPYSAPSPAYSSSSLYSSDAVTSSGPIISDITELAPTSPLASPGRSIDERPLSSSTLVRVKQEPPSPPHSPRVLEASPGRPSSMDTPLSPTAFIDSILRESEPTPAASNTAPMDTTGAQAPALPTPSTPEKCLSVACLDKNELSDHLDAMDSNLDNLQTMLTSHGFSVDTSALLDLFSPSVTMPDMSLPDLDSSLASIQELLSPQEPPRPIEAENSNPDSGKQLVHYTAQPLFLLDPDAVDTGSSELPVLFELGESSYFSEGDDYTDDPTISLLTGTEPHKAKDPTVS

[14] = molecular target: RNA-editing ligase 1, mitochondrial (Trypanosoma brucei brucei, UniProt P86926); test: TbREL1 ligase inhibitors, dose response, biochemical, fluorescence, Trypanosoma brucei (AID 1117295); type: functional
Sequence of RNA-editing ligase 1, mitochondrial (P86926 whole entry): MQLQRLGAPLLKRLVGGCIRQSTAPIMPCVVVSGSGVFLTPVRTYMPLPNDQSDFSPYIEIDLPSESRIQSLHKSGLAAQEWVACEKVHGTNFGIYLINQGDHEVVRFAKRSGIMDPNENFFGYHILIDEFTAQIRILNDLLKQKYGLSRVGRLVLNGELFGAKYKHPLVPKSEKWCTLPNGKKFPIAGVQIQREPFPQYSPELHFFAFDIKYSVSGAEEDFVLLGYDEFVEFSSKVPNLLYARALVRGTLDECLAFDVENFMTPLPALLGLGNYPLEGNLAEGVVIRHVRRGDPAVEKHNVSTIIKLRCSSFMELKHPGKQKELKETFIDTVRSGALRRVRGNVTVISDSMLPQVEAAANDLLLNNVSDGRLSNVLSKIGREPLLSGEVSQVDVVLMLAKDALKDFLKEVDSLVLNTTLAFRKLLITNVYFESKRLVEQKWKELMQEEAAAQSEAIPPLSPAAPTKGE

Sequence of Caspase-6 (P55212 24-179 limits assumed): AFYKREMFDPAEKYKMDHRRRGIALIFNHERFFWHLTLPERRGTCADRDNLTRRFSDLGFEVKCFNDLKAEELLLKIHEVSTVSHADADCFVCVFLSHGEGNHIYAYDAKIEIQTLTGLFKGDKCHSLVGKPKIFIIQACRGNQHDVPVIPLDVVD
Sequence of Caspase-6 (P55212 194-293 limits assumed): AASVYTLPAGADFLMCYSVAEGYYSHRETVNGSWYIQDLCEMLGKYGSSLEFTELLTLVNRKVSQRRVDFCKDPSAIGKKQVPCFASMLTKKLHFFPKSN

AC50 (Caspase-6): 28.8 µM (active)
SMILES: CCO/C(O)=C1/C(C)=Nc2ccccc2N=C1NS(=O)(=O)c1cc(C(=O)O)ccc1Cl

SMILES: COc1cccc(-n2c(SCC(=O)Nc3ccc4c(c3)CCC4)nc3ccccc3c2=O)c1
CC50 (Vero [1]): > 66.6 µM (active)
CC50 (Vero [2]): > 100 µM (active)
IC50 (Prothrombin): > 50 µM (not active)

SMILES: OC1(c2ccc(F)cc2)CC2CCC(C1)N2Cc1nnnn1C1CCCCC1 (configuration not stated)
IC50 [3]: 24 µM (not active)
IC50 [4]: 28.3 µM (not active)

SMILES: Cc1ccc(-c2cc(C(=O)NCCCN3CCCC3)c3ccccc3n2)cc1C
IC50 (Vero [5]): 21.8 µM (active)

IC50 (Protein Tat): > 100 µM (active)
IC50 [6]: 6.96 µM (active)
IC50 [8]: > 100 µM (active)
SMILES: COc1ccc(C2CC(c3ccccc3)n3nc(NC(=O)c4cccs4)nc3N2)cc1 (configuration not stated)
CC50 [7]: > 40 µM (active)

SMILES: O=C(c1cccc(-n2sc3ccccc3c2=O)c1)N1CCCC1
IC50 [9]: 16.5 µM (active)

SMILES: Cc1cc(S(=O)(=O)N(Cc2ccccc2F)C2CC2)ccc1-n1cnnn1
IC50 [10]: > 83.2 µM (inactive)
IC50 [11]: > 109 µM (inactive)

EC50 [12]: 4.34 µM (active)
EC50 [13]: 14.4 µM (active)
SMILES: CCOC(=O)/C=C/C(=O)Nc1ccccc1-c1ccccc1NC(=O)/C=C/C(=O)OCC

SMILES: Cc1c(P(=S)(c2ccccc2)c2ccccc2)n2ccccc2[n+]1C/C=C/c1ccccc1
IC50 [14]: > 96.6 µM (inactive)
